The target in assay [1] is T1, Alkaline phosphatase, tissue-nonspecific isozyme (Homo sapiens, UniProt P05186).
T1 sequence (P05186 whole entry): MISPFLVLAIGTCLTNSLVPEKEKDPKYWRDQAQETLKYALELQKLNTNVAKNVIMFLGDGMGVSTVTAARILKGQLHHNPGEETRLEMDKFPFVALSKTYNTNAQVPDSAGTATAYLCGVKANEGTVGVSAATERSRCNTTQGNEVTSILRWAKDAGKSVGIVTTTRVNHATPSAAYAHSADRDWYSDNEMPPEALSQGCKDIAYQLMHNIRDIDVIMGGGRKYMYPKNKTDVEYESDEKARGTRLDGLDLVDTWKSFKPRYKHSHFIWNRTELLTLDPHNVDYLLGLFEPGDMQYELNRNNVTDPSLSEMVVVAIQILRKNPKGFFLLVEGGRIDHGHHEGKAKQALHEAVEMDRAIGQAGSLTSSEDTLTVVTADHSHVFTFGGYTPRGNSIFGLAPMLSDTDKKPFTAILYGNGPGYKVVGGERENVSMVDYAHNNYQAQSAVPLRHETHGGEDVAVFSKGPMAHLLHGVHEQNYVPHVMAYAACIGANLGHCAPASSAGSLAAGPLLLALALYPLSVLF
Briefly: inhibition of tissue-nonspecific alkaline phosphatase – biochemical, dose response (AID 488882). The class given is functional.

Assay [2] can be described thus: DRD fibroblast viability loss – cell-based, non-viral oncogenic, luminescence, dose response (AID 1934). The class given is functional. The following applies: Homo sapiens.
Assay [3] concerns the target T2, Rac GTPase-activating protein 1 (Homo sapiens, UniProt Q9H0H5).
T2 sequence (Q9H0H5 whole entry): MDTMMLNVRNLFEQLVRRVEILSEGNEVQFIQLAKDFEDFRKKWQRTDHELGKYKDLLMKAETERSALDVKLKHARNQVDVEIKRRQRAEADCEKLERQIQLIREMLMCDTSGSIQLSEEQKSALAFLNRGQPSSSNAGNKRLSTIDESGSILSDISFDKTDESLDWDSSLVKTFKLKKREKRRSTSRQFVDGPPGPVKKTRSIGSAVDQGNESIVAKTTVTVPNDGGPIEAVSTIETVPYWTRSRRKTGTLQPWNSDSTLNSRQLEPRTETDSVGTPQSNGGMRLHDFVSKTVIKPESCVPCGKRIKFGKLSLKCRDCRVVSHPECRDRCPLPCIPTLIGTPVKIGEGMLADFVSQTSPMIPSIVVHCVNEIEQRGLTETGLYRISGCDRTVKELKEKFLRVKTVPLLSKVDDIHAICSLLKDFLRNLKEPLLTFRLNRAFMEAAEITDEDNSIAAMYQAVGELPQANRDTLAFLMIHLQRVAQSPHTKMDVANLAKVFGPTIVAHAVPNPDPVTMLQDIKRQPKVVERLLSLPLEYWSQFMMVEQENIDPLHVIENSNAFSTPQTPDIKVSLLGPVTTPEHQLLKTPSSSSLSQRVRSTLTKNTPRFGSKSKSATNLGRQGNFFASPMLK
Briefly: blockers of MgcRacGAP-driven Rac1 GTP hydrolysis – biochemical, ADP Hunter fluorescence, primary and confirmatory, confirmation (AID 624330). The class given is functional.

The target of assay [4] is T3, Serine/threonine-protein phosphatase (Candida dubliniensis (strain CD36 / CBS 7987 / NCPF 3949 / NRRLY-17841) (Yeast), UniProt B9W6M3).
T3 sequence (B9W6M3 whole entry): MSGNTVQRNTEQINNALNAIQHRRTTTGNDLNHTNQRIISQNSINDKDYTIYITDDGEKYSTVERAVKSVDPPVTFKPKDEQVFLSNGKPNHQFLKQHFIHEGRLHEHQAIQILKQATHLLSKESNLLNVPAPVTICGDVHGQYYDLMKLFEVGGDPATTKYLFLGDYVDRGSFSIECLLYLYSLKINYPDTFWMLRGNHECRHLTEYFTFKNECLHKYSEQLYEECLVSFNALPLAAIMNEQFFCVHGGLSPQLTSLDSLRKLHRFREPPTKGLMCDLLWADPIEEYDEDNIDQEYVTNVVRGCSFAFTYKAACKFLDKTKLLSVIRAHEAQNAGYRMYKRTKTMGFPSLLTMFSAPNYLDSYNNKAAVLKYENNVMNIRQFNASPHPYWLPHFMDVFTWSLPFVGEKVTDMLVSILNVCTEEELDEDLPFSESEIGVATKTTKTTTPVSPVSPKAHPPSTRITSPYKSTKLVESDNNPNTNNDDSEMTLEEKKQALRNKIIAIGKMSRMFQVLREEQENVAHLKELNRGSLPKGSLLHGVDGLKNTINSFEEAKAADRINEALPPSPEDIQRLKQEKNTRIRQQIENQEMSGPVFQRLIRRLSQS
Briefly: blockers of CaCl2-induced CDRE-lacZ signaling – S. cerevisiae, luminescence, secondary, dose response (AID 2388).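 Note: yeast reporter cells carrying a calcineurin-responsive lacZ construct stimulated with calcium chloride; luminescent beta-galactosidase reporter signal in whole cells rather than isolated phosphatase activity; potency for inhibition where a drop in reporter signal means calcineurin blockade.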 The class given is functional, cell-based.

Assay [5] in a line: Luminescence Cell-Based Dose Retest to Confirm Inhibitors of Cancer Stem Cells. [Related pubchem assays (depositor defined):AID2717, AID2721]. The assay is classed as functional. Conditions: Homo sapiens.
Assay [6] addresses Casein kinase I isoform delta (Homo sapiens, UniProt P48730). The class given is functional.
Assay [7] addresses Mitogen-activated protein kinase 1 (Homo sapiens, UniProt P28482). The class given is functional.
In assay [8] the target is Serine/threonine-protein kinase Chk2 (Homo sapiens, UniProt O96017). The class given is functional.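 Note: CHEK2 entry within a kinome-wide screening panel.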
In assay [9] the target is cAMP-dependent protein kinase catalytic subunit PRKX (Homo sapiens, UniProt P51817). The class given is functional.
Assay [10] deals with Mitogen-activated protein kinase 8 (Homo sapiens, UniProt P45983). The assay is classed as functional.
In assay [11] the target is Receptor-type tyrosine-protein kinase FLT3 (Homo sapiens, UniProt P36888). The assay is classed as functional.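 Note: FLT3 was tested as one member of a kinome-wide kinase panel.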
Chain of Receptor-type tyrosine-protein kinase FLT3 (P36888 whole entry): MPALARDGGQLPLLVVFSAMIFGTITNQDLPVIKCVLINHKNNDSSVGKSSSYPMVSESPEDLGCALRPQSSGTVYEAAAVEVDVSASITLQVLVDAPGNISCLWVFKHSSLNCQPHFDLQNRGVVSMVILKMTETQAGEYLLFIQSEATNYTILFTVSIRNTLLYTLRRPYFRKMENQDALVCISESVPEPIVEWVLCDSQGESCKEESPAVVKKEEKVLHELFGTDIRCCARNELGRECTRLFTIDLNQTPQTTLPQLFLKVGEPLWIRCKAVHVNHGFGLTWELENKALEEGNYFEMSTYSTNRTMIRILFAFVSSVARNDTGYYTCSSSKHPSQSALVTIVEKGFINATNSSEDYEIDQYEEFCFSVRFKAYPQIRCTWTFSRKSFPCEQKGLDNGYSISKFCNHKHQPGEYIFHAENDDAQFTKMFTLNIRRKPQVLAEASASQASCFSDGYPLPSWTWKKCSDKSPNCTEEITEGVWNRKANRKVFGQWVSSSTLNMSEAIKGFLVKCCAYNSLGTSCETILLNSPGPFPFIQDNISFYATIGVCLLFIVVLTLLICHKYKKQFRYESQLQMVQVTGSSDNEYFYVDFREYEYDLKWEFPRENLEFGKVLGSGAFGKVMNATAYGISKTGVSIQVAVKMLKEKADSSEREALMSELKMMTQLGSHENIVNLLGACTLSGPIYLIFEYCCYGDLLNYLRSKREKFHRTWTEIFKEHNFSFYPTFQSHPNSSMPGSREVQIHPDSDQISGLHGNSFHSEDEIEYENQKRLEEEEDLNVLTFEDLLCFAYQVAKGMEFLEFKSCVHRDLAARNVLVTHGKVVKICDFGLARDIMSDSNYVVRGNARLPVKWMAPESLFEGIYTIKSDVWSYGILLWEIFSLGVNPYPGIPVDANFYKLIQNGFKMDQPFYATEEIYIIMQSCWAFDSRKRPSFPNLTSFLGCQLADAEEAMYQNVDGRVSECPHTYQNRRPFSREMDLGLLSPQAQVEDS
In assay [12] the target is STE20-like serine/threonine-protein kinase (Homo sapiens, UniProt Q9H2G2). The class given is functional.
Chain of STE20-like serine/threonine-protein kinase (Q9H2G2 whole entry, canonical isoform): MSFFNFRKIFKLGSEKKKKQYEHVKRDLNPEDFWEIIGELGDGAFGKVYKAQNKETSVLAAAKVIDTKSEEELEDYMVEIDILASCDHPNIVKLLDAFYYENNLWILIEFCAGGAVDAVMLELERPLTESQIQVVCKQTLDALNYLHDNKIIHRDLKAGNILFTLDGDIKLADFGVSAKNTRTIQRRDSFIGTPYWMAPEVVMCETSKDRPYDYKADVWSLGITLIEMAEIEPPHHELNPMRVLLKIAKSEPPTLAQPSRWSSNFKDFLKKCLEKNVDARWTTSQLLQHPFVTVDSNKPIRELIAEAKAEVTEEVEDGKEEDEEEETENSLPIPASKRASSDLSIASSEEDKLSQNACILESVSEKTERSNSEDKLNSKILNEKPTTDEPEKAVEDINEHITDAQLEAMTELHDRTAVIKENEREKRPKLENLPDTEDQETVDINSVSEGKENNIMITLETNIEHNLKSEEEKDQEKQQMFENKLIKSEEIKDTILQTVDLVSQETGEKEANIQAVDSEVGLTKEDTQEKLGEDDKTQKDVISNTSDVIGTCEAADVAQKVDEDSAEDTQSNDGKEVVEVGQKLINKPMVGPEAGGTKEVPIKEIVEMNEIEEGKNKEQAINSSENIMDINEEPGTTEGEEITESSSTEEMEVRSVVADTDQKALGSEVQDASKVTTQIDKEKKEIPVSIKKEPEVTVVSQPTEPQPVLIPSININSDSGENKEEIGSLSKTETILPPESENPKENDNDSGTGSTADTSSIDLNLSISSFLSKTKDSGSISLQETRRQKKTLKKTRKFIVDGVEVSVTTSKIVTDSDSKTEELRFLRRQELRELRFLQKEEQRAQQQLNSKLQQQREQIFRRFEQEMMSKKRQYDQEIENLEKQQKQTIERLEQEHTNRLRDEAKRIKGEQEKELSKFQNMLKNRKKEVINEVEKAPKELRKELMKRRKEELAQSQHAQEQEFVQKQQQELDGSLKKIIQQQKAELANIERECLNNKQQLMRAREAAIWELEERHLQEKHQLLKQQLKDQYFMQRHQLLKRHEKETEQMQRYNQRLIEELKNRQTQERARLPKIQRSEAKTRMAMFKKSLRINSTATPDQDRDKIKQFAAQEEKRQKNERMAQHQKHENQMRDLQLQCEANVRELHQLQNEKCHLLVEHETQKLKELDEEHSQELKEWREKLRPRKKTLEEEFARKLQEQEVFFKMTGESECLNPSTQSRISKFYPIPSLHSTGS
In assay [13] the target is Casein kinase I isoform gamma-1 (Homo sapiens, UniProt Q9HCP0). The assay is classed as functional.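 Note: measured as the CSNK1G1 member of a kinome profiling panel.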
Chain of Casein kinase I isoform gamma-1 (Q9HCP0 whole entry, canonical isoform): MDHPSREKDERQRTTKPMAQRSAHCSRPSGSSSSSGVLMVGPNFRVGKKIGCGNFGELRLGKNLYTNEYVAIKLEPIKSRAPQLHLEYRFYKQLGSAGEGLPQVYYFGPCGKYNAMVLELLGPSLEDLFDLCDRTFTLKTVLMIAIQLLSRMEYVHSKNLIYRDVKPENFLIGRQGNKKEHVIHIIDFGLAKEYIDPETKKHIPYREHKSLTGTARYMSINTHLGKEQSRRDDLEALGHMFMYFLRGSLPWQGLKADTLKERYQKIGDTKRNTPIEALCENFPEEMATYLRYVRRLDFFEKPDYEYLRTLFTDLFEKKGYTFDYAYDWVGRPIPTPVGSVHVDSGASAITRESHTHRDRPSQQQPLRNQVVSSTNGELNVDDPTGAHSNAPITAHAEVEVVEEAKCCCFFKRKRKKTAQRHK
Assay [14] concerns the target Protein kinase C gamma type (Homo sapiens, UniProt P05129). The class given is functional.
Assay [15] has as its target Calcium/calmodulin-dependent protein kinase type 1 (Homo sapiens, UniProt Q14012). The class given is functional.
Assay [16] addresses Megakaryocyte-associated tyrosine-protein kinase (Homo sapiens, UniProt P42679). The assay is classed as functional.
The target in assay [17] is Serine/threonine-protein kinase MRCK alpha (Homo sapiens, UniProt Q5VT25). The class given is functional.
Assay [18] concerns the target Macrophage colony-stimulating factor 1 receptor (Homo sapiens, UniProt P07333). The class given is functional.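 Note: value comes from the Navigating the Kinome screening panel, CSF1R member.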
In assay [19] the target is Ribosomal protein S6 kinase beta-1 (Homo sapiens, UniProt P23443). The class given is functional.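 Note: measured as one member of a kinome-wide profiling panel.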
Chain of Ribosomal protein S6 kinase beta-1 (P23443 whole entry): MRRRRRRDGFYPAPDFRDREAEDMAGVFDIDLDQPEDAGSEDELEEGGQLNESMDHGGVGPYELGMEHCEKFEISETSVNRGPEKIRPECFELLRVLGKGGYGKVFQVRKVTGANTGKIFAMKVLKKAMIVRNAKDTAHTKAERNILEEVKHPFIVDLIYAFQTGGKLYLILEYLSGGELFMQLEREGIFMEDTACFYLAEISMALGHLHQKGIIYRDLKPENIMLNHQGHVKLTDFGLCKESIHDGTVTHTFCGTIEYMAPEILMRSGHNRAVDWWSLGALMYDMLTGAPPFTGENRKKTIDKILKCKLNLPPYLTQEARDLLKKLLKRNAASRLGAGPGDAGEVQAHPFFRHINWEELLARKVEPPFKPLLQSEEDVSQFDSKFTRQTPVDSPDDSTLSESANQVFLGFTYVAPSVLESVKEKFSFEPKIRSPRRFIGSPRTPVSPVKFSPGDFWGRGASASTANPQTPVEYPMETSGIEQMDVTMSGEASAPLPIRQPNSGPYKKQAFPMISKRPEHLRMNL

The source made the active and inactive calls.
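Throughout, for AC50: cells exposed to compound for roughly 70 hours or longer before luminescence read.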

Chain of Megakaryocyte-associated tyrosine-protein kinase (P42679 whole entry): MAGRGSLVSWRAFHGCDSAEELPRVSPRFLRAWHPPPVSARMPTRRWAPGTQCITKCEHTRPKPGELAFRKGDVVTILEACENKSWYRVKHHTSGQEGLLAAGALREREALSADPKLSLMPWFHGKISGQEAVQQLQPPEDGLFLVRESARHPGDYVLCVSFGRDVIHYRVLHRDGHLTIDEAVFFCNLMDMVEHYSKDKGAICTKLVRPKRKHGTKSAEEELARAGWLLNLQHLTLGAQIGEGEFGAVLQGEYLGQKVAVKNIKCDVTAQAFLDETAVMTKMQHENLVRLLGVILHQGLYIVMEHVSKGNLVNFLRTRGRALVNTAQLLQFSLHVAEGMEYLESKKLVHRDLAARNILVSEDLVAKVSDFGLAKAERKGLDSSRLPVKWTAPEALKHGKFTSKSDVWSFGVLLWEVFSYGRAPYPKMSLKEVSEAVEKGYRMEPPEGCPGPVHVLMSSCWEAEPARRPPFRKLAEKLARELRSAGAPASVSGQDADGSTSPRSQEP
Chain of Calcium/calmodulin-dependent protein kinase type 1 (Q14012 whole entry): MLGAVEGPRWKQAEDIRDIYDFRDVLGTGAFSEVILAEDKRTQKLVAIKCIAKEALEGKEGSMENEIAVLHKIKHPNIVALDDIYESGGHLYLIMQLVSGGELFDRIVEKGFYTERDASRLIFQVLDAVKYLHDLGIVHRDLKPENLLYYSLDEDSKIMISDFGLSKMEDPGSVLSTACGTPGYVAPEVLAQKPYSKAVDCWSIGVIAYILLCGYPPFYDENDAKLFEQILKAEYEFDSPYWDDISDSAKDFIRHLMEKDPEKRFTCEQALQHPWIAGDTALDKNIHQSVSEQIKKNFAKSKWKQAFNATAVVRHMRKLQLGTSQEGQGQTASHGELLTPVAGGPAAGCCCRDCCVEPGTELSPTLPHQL
Chain of Mitogen-activated protein kinase 1 (P28482 whole entry): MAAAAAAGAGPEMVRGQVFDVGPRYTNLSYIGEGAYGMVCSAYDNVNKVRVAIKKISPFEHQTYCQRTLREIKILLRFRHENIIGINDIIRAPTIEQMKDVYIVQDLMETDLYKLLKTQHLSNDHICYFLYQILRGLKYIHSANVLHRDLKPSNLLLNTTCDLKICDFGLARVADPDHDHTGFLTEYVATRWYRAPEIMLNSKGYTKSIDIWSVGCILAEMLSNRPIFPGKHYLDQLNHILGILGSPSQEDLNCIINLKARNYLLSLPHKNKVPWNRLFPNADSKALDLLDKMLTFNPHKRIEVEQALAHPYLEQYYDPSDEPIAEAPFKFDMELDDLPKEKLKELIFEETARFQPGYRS
Chain of Casein kinase I isoform delta (P48730 whole entry, canonical isoform): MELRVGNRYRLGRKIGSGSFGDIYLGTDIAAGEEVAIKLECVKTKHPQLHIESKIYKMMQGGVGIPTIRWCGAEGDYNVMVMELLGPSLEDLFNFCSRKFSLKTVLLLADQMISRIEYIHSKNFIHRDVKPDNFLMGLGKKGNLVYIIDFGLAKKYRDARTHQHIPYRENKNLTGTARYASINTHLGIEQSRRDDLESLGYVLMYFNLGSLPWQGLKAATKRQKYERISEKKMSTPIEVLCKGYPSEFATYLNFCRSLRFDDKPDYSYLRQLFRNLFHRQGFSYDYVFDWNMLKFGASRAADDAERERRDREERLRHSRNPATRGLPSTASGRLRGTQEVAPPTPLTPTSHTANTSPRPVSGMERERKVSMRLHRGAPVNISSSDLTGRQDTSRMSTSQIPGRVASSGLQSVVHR

For the compound `O=C(NN1C(=O)CSC1=S)C(=O)NN1C(=O)CSC1=S`, the IC50 in assay [1] was 12.8 µM (active).
On to `COC(=O)C1CN(C#N)N(c2ccc(Cl)cc2)C12c1ccccc1-c1ccccc12` (stereo not given), for which, in assay [2], the EC50 was 3.75 µM (active).
Take `Cc1ccc2[nH]c(/C(C#N)=C/c3ccc(O)c(O)c3)nc2c1`: the IC50 in [3] was 22.3 µM (active).
On to `CN(C)S(=O)(=O)Oc1cccc(C(=O)Nc2ccc(Cl)c(Cl)c2)c1`, for which, in assay [4], the EC50 is > 180 µM (inactive). The concentration at half-maximal activity (AC50) in [5] is 8.64 µM (active).
For the compound `O=C1NC(=S)S/C1=C\C=C\c1ccc([N+](=O)[O-])o1`, the IC50 in assay [3] is 37.7 µM (active).
As for `Nc1noc2cccc(-c3cccc(O)c3)c12`, the Ki in assay [6] is 6.31 µM (active); in assay [7], > 7.94 µM (inactive); in assay [8] it was > 1.58 µM (inactive); in assay [9] it was 5.01 µM (active); in assay [10], > 25.1 µM (inactive); in [11] it was 10 µM (active). For the same compound, the Ki in assay [12] is > 10 µM (inactive); in assay [13] it was > 6.31 µM (inactive); in assay [14] it was > 7.94 µM (inactive); in assay [15], > 5.01 µM (inactive); in assay [16], > 2 µM (inactive); in assay [17], > 10 µM (inactive). The Ki in assay [18] is > 5.01 µM (inactive); in assay [19], 0.126 µM (active).

One may read the IC50 as the concentration that inhibits the measured activity by half. The term EC50 denotes the concentration needed to bring the measured effect to its halfway point. As usually defined, the AC50 is the concentration giving half of the maximal activity seen. As a reminder, the Ki is a measure of affinity in units of concentration, obtained from inhibition or displacement.

These data come from ChEMBL document CHEMBL1201862, “PubChem BioAssay data set” (2004).
